Reference: PubChem BioAssay (NCI)
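Step 1: Grow cells in 96-well plates. Step 2: Expose to compound for 48 hours at 5 concentrations. Step 3: Interpolate endpoints linearly; if unreached, use highest concentration. TGI: total growth inhibition.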

Experiments:
Assay in all cases: NCI-60 cell line screen, 48 h
HL-60(TB) leukemia = test system: HL-60(TB) leukemia
K-562 leukemia = test system: K-562 leukemia
LOX IMVI melanoma = test system: LOX IMVI melanoma
MALME-3M melanoma = test system: MALME-3M melanoma
MOLT-4 leukemia = test system: MOLT-4 leukemia
NCI-H23 lung = test system: NCI-H23 lung
NCI-H522 lung = test system: NCI-H522 lung
SF-268 CNS = test system: SF-268 CNS
SF-295 CNS = test system: SF-295 CNS
SW-620 colon = test system: SW-620 colon
U251 CNS = test system: U251 CNS
UO-31 renal = test system: UO-31 renal
M14 melanoma = test system: M14 melanoma

Compound | TGI (HL-60(TB) leukemia) [µM] | TGI (K-562 leukemia) [µM] | TGI (LOX IMVI melanoma) [µM] | TGI (MALME-3M melanoma) [µM] | TGI (MOLT-4 leukemia) [µM] | TGI (NCI-H23 lung) [µM] | TGI (NCI-H522 lung) [µM] | TGI (SF-268 CNS) [µM] | TGI (SF-295 CNS) [µM] | TGI (SW-620 colon) [µM] | TGI (U251 CNS) [µM] | TGI (UO-31 renal) [µM] | TGI (M14 melanoma) [µM]
COc1ccc(/C=C/C(=O)c2sc(-c3cccnc3)nc2C)cc1 | 48.1 | > 100 | > 100 | > 100 | 99.5 | > 100 | > 100 | > 100 | > 100 | > 100 | > 100 | > 100 | 
CC(C)c1ccc(/C=C/c2cc(C(=O)NNC(=O)NC3CCCCC3)nc(=S)[nH]2)cc1 |  |  | > 100 | > 100 |  | > 100 | > 100 | > 100 | > 100 | > 100 | > 100 | > 100 | > 100
O=C(O)c1c2c(cc3c(=O)cc(-c4ccccc4)oc13)CCCC2 |  | > 100 | > 100 | > 100 | > 100 | > 100 | > 100 | > 100 | > 100 | > 100 | > 100 | > 100 | > 100
O=[N+]([O-])C=C1c2ccccc2-c2ccccc21 | 23.7 | 6.34 | 30.9 |  | 53.5 | 30.4 |  | 36.4 | 33.5 | 31.2 |  | 28.5 | 25.3
CC(C)C(Sc1nc(-c2ccccc2)c(-c2ccccc2)[nH]1)c1n[nH]c(=S)n1-c1ccccc1 (configuration not stated) | 47.1 |  | 35.4 | 50.9 | 47.5 | 77.9 | 43.6 | > 100 | 57.3 | > 100 | 61.3 | 57.2 | 38.2
CCOC(=O)C1SC(=Nc2ccc(Cl)cc2Cl)N=C1C (configuration not stated) | > 100 | > 100 | > 100 | > 100 |  | > 100 | > 100 | > 100 | > 100 | > 100 | > 100 | > 100 | > 100
Cc1ccc(-c2nnc3s/c(=C\c4ccc(N(C)C)cc4)c(=O)n23)cc1 | > 100 |  | > 100 | > 100 | > 100 | > 100 | > 100 | > 100 | > 100 | > 100 | > 100 | > 100 | > 100
COc1ccccc1NC(=O)CC(=O)N1N=C(c2ccccc2)C(N=Nc2ccc(Cl)cc2)C1=O (configuration not stated) | > 100 | > 100 | > 100 |  | > 100 | > 100 | > 100 | > 100 | 70.3 | > 100 | > 100 | 52.4 | > 100
